{"source": "patent US6841556B2", "about": "“Pyrazoloisoquinoline derivatives for inhibiting NFκB-inducing kinase” (Aventis Pharma Deutschland GmbH, priority 2002, dated 2005)", "key": {"[1]": {"tested_on": "human peripheral blood lymphocytes", "assay": "Cytotoxicity by LDH release, LPS-stimulated human peripheral blood lymphocytes", "format": "cell-based", "procedure": "(§1) The pyrazoloisoquinoline derivatives according to the invention were tested for inhibitory activity against NIK in various in vitro assay systems. In this connection, human peripheral blood lymphocytes were preincubated for 1 h with different concentrations of the compounds and then stimulated for 24 h with LPS or IL1β. After that, a commercially obtainable ELISA test kit was used to measure the release of TNFα in the culture supernatant, and the IC50 for the given compound was determined. The cytotoxicity was measured by way of LDH release using a commercially obtainable test kit and the LD50 for the given compound was determined."}, "[2]": {"tested_on": "human peripheral blood lymphocytes", "assay": "Cytotoxicity by LDH release, IL1β-stimulated human peripheral blood lymphocytes", "format": "cell-based", "procedure": "as §1"}}, "data": [{"smiles": "c1ccc(-c2nc3c(-c4ccccc4)n[nH]c3c3ccccc23)cc1", "note": "[Example 1, 3,5-Diphenyl-1H-pyrazolo[4,3-c]isoquinoline]", "values": [{"measurement": "Cytotoxicity LD50", "setting": "[1]", "result": ">100", "unit": "µM"}, {"measurement": "Cytotoxicity LD50", "setting": "[2]", "result": ">100", "unit": "µM"}]}, {"smiles": "COc1cccc(-c2nc3c(C)n[nH]c3c3ccccc23)c1", "note": "[Example 2, 5-(3-Methoxyphenyl)-3-methyl-1H-pyrazolo[4,3-c]isoquinoline]", "values": [{"measurement": "Cytotoxicity LD50", "setting": "[1]", "result": ">100", "unit": "µM"}, {"measurement": "Cytotoxicity LD50", "setting": "[2]", "result": ">100", "unit": "µM"}]}, {"smiles": "Cc1n[nH]c2c1nc(-c1cccc(O)c1)c1ccccc12", "note": "[Example 3, 3-(3-Methyl-1H-pyrazolo[4,3-c]isoquinolin-5-yl)phenol]", "values": [{"measurement": "Cytotoxicity LD50", "setting": "[1]", "result": ">100", "unit": "µM"}, {"measurement": "Cytotoxicity LD50", "setting": "[2]", "result": ">100", "unit": "µM"}]}]}
